Reference: patent US4672059A, “N-[[5-(trifluoromethyl)-6-methoxy-1-naphthalenyl]-thioxomethyl and carbonyl]-N-methylglycinamides” (American Home Products Corporation, priority 1985, dated 1987)

Tests used:
aldose reductase = conditions: literature; cited from earlier work
[1] = test system: dulcitol accumulation in tissues of galactose-fed rats (aldose reductase inhibiting property); experiment: dulcitol accumulation in lens, sciatic nerve and diaphragm of galactosemic rats; format: in vivo, male Sprague-Dawley rats
Text: Such experiments are exemplified hereinbelow after the listing of the following general comments pertaining to these experiments:
(a) Four or more groups of six male rats, 50-70 g, Sprague-Dawley strain, were used. The first group, the control group, was fed a mixture of laboratory chow (roden Laboratory Chow, Purina) and glucose at 20% (w/w %) concentration. The untreated galactosemic group was fed a similar diet in which galactose is substituted for glucose. The third group was fed a diet prepared by mixing a given amount of the test compound with the galactose containing diet. The concentration of galactose in the diet of the treated groups was the same as that for the untreated galactosemic group.
(b) After four days, the animals were killed by decapitation. The eyeballs were removed and punctured with a razor blade; the freed lenses were rolled gently on filter paper and weighed. The sciatic nerves were dissected as completely as possible and weighed. Both tissues when frozen can be kept up to two weeks before being analyzed for dulcitol.
Only two minor reagent changes were made: (a) The rinsing mixture was an aqueous 5% (w/v) trichloroacetic acid solution and (b) the stock solution was prepared by dissolving 25 mg of dulcitol in 100 ml of an aqueous trichloroacetic acid solution. [N.B.: For each experiment the average value found in the tissue from rats fed the glucose diet was subtracted from the individual values found in the corresponding tissue in galactose-fed rats to obtain the amount of polyol accumulated.] […] In the present case the procedure of Hayman and Kinoshita was modified in that the final chromatography step was omitted in the preparation of the enzyme from bovine lens.
The figures under L, N and D represent the percentage decrease of dulcitol accumulation in the tissues of the lens, sciatic nerve and diaphragm, respectively, for treated rats as compared to untreated rats.

[2] = 26 mg/kg/day in diet, 4 days, vs untreated galactosemic rats

## O=C(O)CN1C(=O)c2cccc3cccc(c23)C1=O [1,3-Dioxo-1H-benz[de]isoquinoline-2(3H)-acetic acid]
Aldose reductase
  aldose reductase inhibition, in words: effective inhibitor of aldose reductase

## COc1ccc2c(C(=S)N(C)CC(N)=O)cccc2c1C(F)(F)F [compound 1, N-[[5-(trifluoromethyl)-6-methoxy-1-naphthalenyl]-thioxomethyl]-N-methylglycinamide]
[1]; 5 mg/kg/day
  in vivo results compared with compound No. 9 (tolrestat): comparable results
[1]; 5 mg/kg/day in diet, 4 days, vs untreated galactosemic rats
  % lowering dulcitol accumulation in vivo, N (sciatic nerve): 54%

## COc1ccc2c(C(=S)N(C)CC(=O)N(C)C)cccc2c1C(F)(F)F [compound 3, 2-[[[6-Methoxy-5-(trifluoromethyl)-1-naphthalenyl]thioxomethyl]methylamino]-N,N-dimethylacetamide]
[1]; 55 mg/kg/day in diet, 4 days, vs untreated galactosemic rats
  % lowering dulcitol accumulation in vivo, N (sciatic nerve): 48%

## COC(=N)NC(=O)CN(C)C(=S)c1cccc2c(C(F)(F)F)c(OC)ccc12 [compound 4, N--[[[[5-(trifluoromethyl)-6-methoxy-1-naphthalenyl]thioxomethyl]-N--methylamino]acetyl]carbamimidic acid, methyl ester]
[1]; [2]
  % lowering dulcitol accumulation in vivo, N (sciatic nerve): 62%

## COC(=O)NC(=O)CN(C)C(=S)c1cccc2c(C(F)(F)F)c(OC)ccc12 [compound 6, [[[5-(Trifluoromethyl)-6-methoxy-1-naphthalenyl]thioxomethyl](methylamino)acetyl]carbamic acid, Methyl Ester]
[1]; 8.4 mg/kg/day in diet, 4 days, vs untreated galactosemic rats
  % lowering dulcitol accumulation in vivo, N (sciatic nerve): 33%
[1]; [2]
  % lowering dulcitol accumulation in vivo, N (sciatic nerve): 93%

## COc1ccc2c(C(=O)N(C)CC(N)=O)cccc2c1C(F)(F)F [compound 8, N-[[6-Methoxy-5-(trifluoromethyl)-1-naphthalenyl]carbonyl]-N-methylglycinamide]
[1]; diaphragm, 28 mg/kg/day in diet, 4 days, vs untreated galactosemic rats
  % lowering dulcitol accumulation in vivo, D (diaphragm): 42%
[1]; 28 mg/kg/day in diet, 4 days, vs untreated galactosemic rats
  % lowering dulcitol accumulation in vivo, N (sciatic nerve): 66%

## O=C1NC(=O)[C@@]2(CCOc3ccc(F)cc32)N1 [sorbinil, (S)-6-Fluoro-2,3-dihydrospiro(4H-1-benzopyran-4,4'-imidazolidine)-2',5'-dione]
Aldose reductase
  aldose reductase inhibition, in words: aldose reductase inhibiting properties
